Literature values as cited in patent publication US20250177267A1, “A CLEANSING COMPOSITION” (Conopco, Inc., d/b/a UNILEVER, priority 2022, published 2025).

Conditions: prior art acids with pKa greater than 4.5

CCCCCC(=O)O [hexanoic acid]
pKa: 4.72
